Laboratory results published in PubChem BioAssay AID1845194 (Molecular Pharmacology Branch, DTP, NCI, 2023).
Several values for one entry are separate records, joined by “and”; a condition that tells them apart may be missing. Equal values may be shown once.

System: 287954-098-R-J1 tumor spheroid viability
Test: Anticancer human tumor 287954-098-R-J1 patient-derived Ewing sarcoma cell line growth inhibition
Conditions: spheroids with HUVEC and MSC; for viability, T/C: stronger effect = lower value
Method in brief: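 Complex tumor spheroids combined malignant cells with endothelial cells and mesenchymal stem cells. DNA-damaging drugs and DNA repair inhibitors were tested alone and in combination, at half-log dilutions down from clinical Cmax (top 10 microM if Cmax unknown), 0.25% DMSO final.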
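Also: spheroids exposed to compound for 7 days before viability readout.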
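For viability, T/C in this document: luminescent signal taken as surrogate of viable cell content; 100% = DMSO vehicle control viability and lower means growth inhibition.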

COc1cc(C)[nH]c(=O)c1CN1CCc2c(Cl)cc(C(OC)C3COC3)c(Cl)c2C1=O (configuration not stated)
viability, T/C (compound 0.0316 µM): 97.7% and 96.7% and 96.6%
viability, T/C (compound 0.1 µM): 94.9% and 102% and 98.6%
viability, T/C (compound 0.316 µM): 82.7% and 91.7% and 95.5%
viability, T/C (compound 1 µM): 93.9% and 89.7% and 90.5%
viability, T/C (compound 3.16 µM): 95.1% and 83.6% and 94.9%
viability, T/C (compound 10 µM): 93% and 92.8% and 93.6%
IC50 (curve of compound): > 10000 nM

CC1COCCN1c1cc(-c2ccnn2C)c2ccnc(-c3ccn[nH]3)c2n1 (configuration not stated) + CC[C@@]1(O)C(=O)OCc2c1cc1n(c2=O)Cc2cc3c(CN(C)C)c(O)ccc3nc2-1
IC50 (curve of first compound, second compound 0.003 µM): 45.5 nM
IC50 (curve of first compound, second compound 0.00949 µM): < 31.6 nM
IC50 (curve of first compound, second compound 0.03 µM): < 31.6 nM
IC50 (curve of first compound, second compound 0.0949 µM): < 31.6 nM
IC50 (curve of first compound, second compound 0.3 µM): < 31.6 nM
viability, T/C (second compound 0.003 µM, first compound 0.0316 µM): 66.4%
viability, T/C (second compound 0.003 µM, first compound 0.1 µM): 14.3%
viability, T/C (second compound 0.003 µM, first compound 0.316 µM): 7.1%
viability, T/C (second compound 0.003 µM, first compound 1 µM): 2.65%
viability, T/C (second compound 0.003 µM, first compound 3.16 µM): 1.92%
viability, T/C (second compound 0.003 µM, first compound 10 µM): 2.07%
viability, T/C (second compound 0.00949 µM, first compound 0.0316 µM): 3.62%
viability, T/C (second compound 0.00949 µM, first compound 0.1 µM): 1.68%
viability, T/C (second compound 0.00949 µM, first compound 0.316 µM): 2.2%
viability, T/C (second compound 0.00949 µM, first compound 1 µM): 1.74%
viability, T/C (second compound 0.00949 µM, first compound 3.16 µM): 1.4%
viability, T/C (second compound 0.00949 µM, first compound 10 µM): 2%
viability, T/C (second compound 0.03 µM, first compound 0.0316 µM): 1.73%
viability, T/C (second compound 0.03 µM, first compound 0.1 µM): 1.36%
viability, T/C (second compound 0.03 µM, first compound 0.316 µM): 1.38%
viability, T/C (second compound 0.03 µM, first compound 1 µM): 0.71%
viability, T/C (second compound 0.03 µM, first compound 3.16 µM): 1.17%
viability, T/C (second compound 0.03 µM, first compound 10 µM): 1.55%
viability, T/C (second compound 0.0949 µM, first compound 0.0316 µM): 1.53%
viability, T/C (second compound 0.0949 µM, first compound 0.1 µM): 1.31%
viability, T/C (second compound 0.0949 µM, first compound 0.316 µM): 1.28%
viability, T/C (second compound 0.0949 µM, first compound 1 µM): 0.9%
viability, T/C (second compound 0.0949 µM, first compound 3.16 µM): 0.77%
viability, T/C (second compound 0.0949 µM, first compound 10 µM): 1.08%
viability, T/C (second compound 0.3 µM, first compound 0.0316 µM): 1.62%
viability, T/C (second compound 0.3 µM, first compound 0.1 µM): 1.43%
viability, T/C (second compound 0.3 µM, first compound 0.316 µM): 1.23%
viability, T/C (second compound 0.3 µM, first compound 1 µM): 0.85%
viability, T/C (second compound 0.3 µM, first compound 3.16 µM): 0.69%
viability, T/C (second compound 0.3 µM, first compound 10 µM): 0.67%
